Our source for the CC50, EC50 selectivity and EC50 values is patent US12448388B2, “PRMT5 inhibitors and uses thereof” (Gilead Sciences, Inc., priority 2023, dated 2025).

Structures are written as SMILES. Where two headings read alike, the source gives them in different places. A value given as a limit tells only on which side of the number the result lay.

Experiment [1] relates to HCT116 MTAP-deleted cell lines. The experiment can be described thus: Cell viability assay (CellTiter-Glo, 7 days), HCT116 MTAP-deleted. The experiment is classed as cell-based. Conditions: Homo sapiens, HCT-116, HCT116 MTAP-deleted, class symbols, read-out: CC50. A digest of the protocol:
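Each PRMT5 inhibitor was tested as a dose response alongside tool compounds on the same plate. Incubation ran 7 days at 37 °C under 5% CO2, after which CellTiter-Glo luminescence was recorded and CC50 calculated.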
On the technique in general: ATP-based viability assays read luminescence as a measure of living cells.

Experiment [2] concerns Symmetric Di-methyl Arginine (SDMA) signal (PRMT5 inhibition) in HCT116 MTAP-deleted cells. The experiment can be described thus: Symmetric di-methyl arginine image-based high content screen assay (SDMA assay), HCT116 MTAP-deleted. The experiment is classed as cell-based. The following applies: for EC50: Homo sapiens, HCT-116, HCT116 MTAP-deleted, class symbols. A digest of the protocol: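 Read-out is imaging of per-cell mean SDMA immunofluorescence (Alexa 488), with cells segmented by DAPI. Cells, MTAP-deleted or wild-type HCT116, were exposed to compound for 3 days at 37 °C before fixation. EC50 derived by 4-parameter non-linear logistic regression.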

The mark [3] stands for this setting: HCT116 WT vs HCT116 MTAP-deleted.
[4] abbreviates: HCT116 WT versus HCT116 MTAP-deleted.

With `Nc1nc2ccc(C(=O)N3CCC[C@@H]4Oc5cc(S(F)(F)(F)(F)F)ccc5[C@@H]43)cc2n2cncc12` [Ff-664, (4-aminoimidazo[1,5-a]quinoxalin-8-yl)((4aS,9bS)-7-(pentafluoro-16-sulfaneyl)-3,4,4a,9b-tetrahydrobenzofuro[3,2-b]pyridin-1(2H)-yl)methanone], the CC50 in experiment [1] (cell viability assay) is below 100 nM. The same molecule gave an EC50 selectivity in experiment [2] (setting [3]) of 79. Besides, the 50% effective concentration (EC50) in experiment [2] was at most 1 nM.

On to `CC(=O)N(C)N(Cc1ccc(OC(F)F)cc1F)C(=O)c1ccc2nc(N)c3cnc(C)n3c2c1` [Fc-2, N′-acetyl-4-amino-N-(4-(difluoromethoxy)-2-fluorobenzyl)-N′,1-dimethylimidazo[1,5-a]quinoxaline-8-carbohydrazide], for which the CC50 in experiment [1] (cell viability) lay within 100 to 1000 nM. In experiment [2] (setting [4]), this molecule came in with an EC50 selectivity of 431. The EC50 in experiment [2] lay within 1 to 5 nM.

Take `Nc1nc2ccc(C(=O)N(Cc3ccc(C(F)(F)F)cn3)N3CCCC3=O)cc2n2cncc12` [Fd-1, 4-amino-N-(2-oxopyrrolidin-1-yl)-N-((5-(trifluoromethyl)pyridin-2-yl)methyl)imidazo[1,5-a]quinoxaline-8-carboxamide]: the half-maximal cytotoxic concentration (CC50) in experiment [1] (cell viability) was in the range of 100 to 1000 nM. Also, in experiment [2] (setting [4]), the EC50 selectivity is 54. In addition, the EC50 in experiment [2] lay within 1 to 5 nM.

As to `Cc1nc(C)n2c1c(N)nc1ccc(C(=O)N(C)[C@@H]3COCc4cc(Br)ccc43)cc12` [Fg-14, (S)-4-amino-N-(7-bromoisochroman-4-yl)-N,1,3-trimethylimidazo[1,5-a]quinoxaline-8-carboxamide], the half-maximal cytotoxic concentration (CC50) in experiment [1] (cell viability assay) lay within 100 to 1000 nM. The EC50 selectivity in experiment [2] (setting [3]) stood at 158. This molecule displayed an EC50 in experiment [2] of 1 to 5 nM.

As to `C[C@H]1CN(C(=O)c2cc3c(cc2F)nc(N)c2cncn23)[C@H]2c3ccc(C(F)(F)C(F)(F)F)cc3C[C@H]2O1` [Fg-38, (4-amino-7-fluoroimidazo[1,5-a]quinoxalin-8-yl)((2S,4aS,9aR)-2-methyl-7-(perfluoroethyl)-2,3,9,9a-tetrahydroindeno[2,1-b][1,4]oxazin-4(4aH)-yl)methanone], in experiment [1] (cell viability assay), the CC50 was below 100 nM. This molecule registered an EC50 selectivity in experiment [2] (setting [3]) of 31. The molecule further displayed a concentration giving a half-maximal response (EC50) in experiment [2] of 1 to 5 nM.

Take `Nc1nc2cc(F)c(C(=O)N3CCC4CC3c3ccc(C(F)(F)F)cc34)cc2n2cncc12` (stereo not drawn) [Ff-29, (4-amino-7-fluoroimidazo[1,5-a]quinoxalin-8-yl)(7-(trifluoromethyl)-1,3,4,5-tetrahydro-2H-1,5-methanobenzo[c]azepin-2-yl)methanone]: in experiment [1] (cell viability), the cytotoxic concentration (CC50) fell in the range of 100 to 1000 nM. The same molecule had an EC50 selectivity in experiment [2] (setting [4]) of 308. For the same molecule, the EC50 in experiment [2] fell in the range of 1 to 5 nM.

Regarding `Nc1nc2cc(F)c(C(=O)N(Cc3ccc(Cl)cc3F)C34CC(C3)C4)cc2n2cncc12` [Ff-6, 4-amino-N-(bicyclo[1.1.1]pentan-1-yl)-N-(4-chloro-2-fluorobenzyl)-7-fluoroimidazo[1,5-a]quinoxaline-8-carboxamide], the CC50 in experiment [1] (cell viability) lay within 100 to 1000 nM. The EC50 selectivity in experiment [2] (setting [4]) came to 71. The molecule also yielded an EC50 in experiment [2] above 5 nM.

As for `C[C@@H]1C[C@@H]2Cc3nc(C(F)(F)F)ccc3[C@@H]2N(C(=O)c2cc3c(cc2F)nc(N)c2cncn23)C1` (racemic) [Ff-321, Rac-(4-amino-7-fluoroimidazo[1,5-a]quinoxalin-8-yl)((4bR,7R,8aR)-7-methyl-2-(trifluoromethyl)-4b,6,7,8,8a,9-hexahydro-5H-cyclopenta[1,2-b:3,4-b′]dipyridin-5-yl)methanone], the CC50 in experiment [1] (cell viability) is below 100 nM. The same molecule yielded an EC50 selectivity in experiment [2] (setting [4]) of 67. The molecule also yielded a concentration giving a half-maximal response (EC50) in experiment [2] of 1 to 5 nM.

With `Nc1nc2cc(F)c(C(=O)N3CCCC4OCc5nc(C(F)(F)F)ccc5[C@@H]43)cc2n2cncc12` (mixture of isomers) [Ff-319, Rac-(4-amino-7-fluoroimidazo[1,5-a]quinoxalin-8-yl)((4aS,10bS)-8-(trifluoromethyl)-2,3,4,4a,6,10b-hexahydro-1H-pyrano[3,2-b:5,4-b′]dipyridin-1-yl)methanone], in experiment [1] (cell viability), the CC50 is below 100 nM. Besides, in experiment [2] (setting [4]), the EC50 selectivity is given as 42. Also, in experiment [2], the 50% effective concentration (EC50) fell in the range of 1 to 5 nM.

Take `Cc1ncc2c3cc(C(=O)N(C)[C@@H]4COc5cc(C(F)(F)F)ccc54)ccc3nc(N)n12` [Fg-10, (S)-5-amino-N,3-dimethyl-N-(6-(trifluoromethyl)-2,3-dihydrobenzofuran-3-yl)imidazo[1,5-c]quinazoline-9-carboxamide]: the CC50 in experiment [1] (cell viability assay) is above 1000 nM. In addition, the EC50 selectivity in experiment [2] (setting [3]) is 307. This molecule yielded an EC50 in experiment [2] above 5 nM.

Take `Nc1nc2cc(F)c(C(=O)N3CCC[C@@H]4Oc5cc(C(F)(F)C(F)(F)F)ncc5[C@@H]43)cc2n2cncc12` [Fg-40, (4-amino-7-fluoroimidazo[1,5-a]quinoxalin-8-yl)((4aS,9bS)-7-(perfluoroethyl)-3,4,4a,9b-tetrahydrofuro[3,2-b:4,5-c′]dipyridin-1(2H)-yl)methanone]: in experiment [1] (cell viability assay), the CC50 was below 100 nM. Besides, the EC50 selectivity in experiment [2] (setting [3]) was 92. This molecule displayed an EC50 in experiment [2] of at most 1 nM.

Take `C[C@H]1CN(C(=O)c2cc3c(cc2F)nc(N)c2cncn23)[C@H]2c3cc(F)c(Br)cc3C[C@H]2O1` [Ff-165, (4-amino-7-fluoroimidazo[1,5-a]quinoxalin-8-yl)((2S,4aS,9aR)-7-bromo-6-fluoro-2-methyl-2,3,9,9a-tetrahydroindeno[2,1-b][1,4]oxazin-4(4aH)-yl)methanone]: the CC50 in experiment [1] (cell viability) is below 100 nM. The EC50 selectivity in experiment [2] (setting [4]) is reported as 43. Besides, the EC50 in experiment [2] was at most 1 nM.

Consider `Cc1ncc2c(N)nc3ccc(C(=O)N(C)[C@@H]4COc5cc(C#CC6(O)CC6)ccc54)cc3n12` [Ff-19, (S)-4-amino-N-(6-((1-hydroxycyclopropyl)ethynyl)-2,3-dihydrobenzofuran-3-yl)-N,1-dimethylimidazo[1,5-a]quinoxaline-8-carboxamide], for which the CC50 in experiment [1] (cell viability) fell in the range of 100 to 1000 nM. Further, the EC50 selectivity in experiment [2] (setting [4]) came out at 129. In experiment [2], this molecule returned an EC50 above 5 nM.

Consider `Cc1ncc2c(N)nc3ccc(C(=O)N4CCC[C@@H]5Oc6cc(OC(F)(F)F)ccc6[C@@H]54)cc3n12` [Ff-640, (4-amino-1-methylimidazo[1,5-a]quinoxalin-8-yl)((4aS,9bS)-7-(trifluoromethoxy)-3,4,4a,9b-tetrahydrobenzofuro[3,2-b]pyridin-1(2H)-yl)methanone], for which the CC50 in experiment [1] (cell viability assay) is below 100 nM. Further, the EC50 selectivity in experiment [2] (setting [3]) was 415. Besides, the EC50 in experiment [2] is 1 to 5 nM.

With `CC(=O)N(C)N(Cc1nc2cc(Cl)ccc2s1)C(=O)c1ccc2nc(N)c3cncn3c2c1` [Fb-5, N′-acetyl-4-amino-N-((5-chlorobenzo[d]thiazol-2-yl)methyl)-N′-methylimidazo[1,5-a]quinoxaline-8-carbohydrazide], the CC50 in experiment [1] (cell viability) is 100 to 1000 nM. The molecule also registered an EC50 selectivity in experiment [2] (setting [4]) of 320. In addition, the half-maximal effective concentration (EC50) in experiment [2] was above 5 nM.

Turning to `Cc1ncn2c1c(N)nc1ccc(C(=O)N(C)[C@@H]3COc4nc(C(F)(F)F)ccc43)cc12` [Fg-7, (S)-4-amino-N,3-dimethyl-N-(6-(trifluoromethyl)-2,3-dihydrofuro[2,3-b]pyridin-3-yl)imidazo[1,5-a]quinoxaline-8-carboxamide], the CC50 in experiment [1] (cell viability assay) fell in the range of 100 to 1000 nM. The EC50 selectivity in experiment [2] (setting [3]) stood at 496. This molecule registered an EC50 in experiment [2] of 1 to 5 nM.

Take `C[C@H]1C[C@@H]2Oc3cc(C(F)(F)F)ccc3[C@@H]2N(C(=O)c2ccc3nc(N)c4cncn4c3c2)C1` (single isomer, unassigned) [Ff-689]: the CC50 in experiment [1] (cell viability assay) was below 100 nM. In addition, the EC50 selectivity in experiment [2] (setting [3]) was determined as 59. In addition, the concentration giving a half-maximal response (EC50) in experiment [2] is at most 1 nM.

`Cc1ncn2c1c(N)nc1cnc(C(=O)N(C)[C@@H]3COc4cc(C(F)(F)F)ccc43)cc12` [Ff-502, (S)-4-amino-N,3-dimethyl-N-(6-(trifluoromethyl)-2,3-dihydrobenzofuran-3-yl)imidazo[1,5-a]pyrido[3,4-e]pyrazine-8-carboxamide]: the CC50 in experiment [1] (cell viability assay) is below 100 nM. Further, the EC50 selectivity in experiment [2] (setting [3]) is on record as 112. For the same molecule, in experiment [2], the EC50 fell in the range of 1 to 5 nM.

Regarding `Cc1ncc2c(N)nc3cc(F)c(C(=O)N(C)[C@@H]4COc5cc(C(F)(F)F)ccc54)cc3n12` [Ff-59, (S)-4-amino-7-fluoro-N,1-dimethyl-N-(6-(trifluoromethyl)-2,3-dihydrobenzofuran-3-yl)imidazo[1,5-a]quinoxaline-8-carboxamide], the CC50 in experiment [1] (cell viability) is below 100 nM. In experiment [2] (setting [4]), this molecule returned an EC50 selectivity of 65. Also, the EC50 in experiment [2] is 1 to 5 nM.

`Cc1ncn2c1c(N)nc1cc(F)c(C(=O)N3CCC[C@@H]4Oc5cc(C(F)(F)C(F)(F)F)ncc5[C@@H]43)cc12` [Fg-41, (4-amino-7-fluoro-3-methylimidazo[1,5-a]quinoxalin-8-yl)((4aS,9bS)-7-(perfluoroethyl)-3,4,4a,9b-tetrahydrofuro[3,2-b:4,5-c′]dipyridin-1(2H)-yl)methanone]: in experiment [1] (cell viability assay), the CC50 was below 100 nM. This molecule also gave an EC50 selectivity in experiment [2] (setting [3]) of 42. The same molecule displayed a concentration for a half-maximal effect (EC50) in experiment [2] of 1 to 5 nM.

Consider `Nc1nc2cnc(C(=O)N3CCC[C@@H]4Cc5cc(C(F)(F)F)ccc5[C@@H]43)cc2n2cncc12` (single isomer, unassigned) [Ff-687], for which the CC50 in experiment [1] (cell viability assay) was below 100 nM. In experiment [2] (setting [3]), this molecule returned an EC50 selectivity of 325. This molecule also came in with a concentration for a half-maximal effect (EC50) in experiment [2] of at most 1 nM.

In the case of `CCN(Cc1ccc(C(F)(F)F)cc1F)C(=O)c1cc2c(cc1F)nc(N)c1cncn12` [Ff-26, 4-amino-N-ethyl-7-fluoro-N-[[2-fluoro-4-(trifluoromethyl)phenyl]methyl]imidazo[1,5-a]quinoxaline-8-carboxamide], in experiment [1] (cell viability), the CC50 is below 100 nM. The EC50 selectivity in experiment [2] (setting [4]) is 210. This molecule yielded an EC50 in experiment [2] of at most 1 nM.

The CC50 is the concentration giving 50% cytotoxicity. Broadly, the EC50 is the concentration giving half of the maximal effect. Low values mean greater potency, high ones weaker potency.
